Counter-ions that a name gives are not always drawn. Marks after values point to notes of the source that are not given here.
Columns and labels:
[1] = tested on: healthy post-menopausal women; experiment: 8-week parallel, double-blind, placebo study: markers of bone metabolism (GGGC); assay type: in vivo, human; details: 8 weeks
Description: (§1) An 8-week parallel, double-blind, placebo study in approximately 160 healthy post-menopausal women was completed. The doses of raloxifene used in this study were 10, 50, and 200 mg. […] (See Table I) Because of development over time seen with many bone markers, a raloxifene dose of 50 mg/day will likely be fully active when evaluated during a study of longer duration.

[2] = tested on: healthy post-menopausal women; experiment: 8-week parallel, double-blind, placebo study: serum lipids (GGGC); assay type: in vivo, human; details: 8 weeks
Description: as §1
Serum lipid levels were affected by raloxifene doses of 50 and 200 mg (Table II).

O=C(c1ccc(OCCN2CCCCC2)cc1)c1c(-c2ccc(O)cc2)sc2cc(O)ccc12 [Raloxifene, 6-hydroxy-2-(4-hydroxyphenyl)-3[4-(2-piperidinoethoxy)benzoyl]benzo[b]thiophene, hydrochloride]
activity with either bone marker (in words) ([1]; 10 mg dose): no significant activity
Serum alkaline phosphatase, mean group change from baseline to endpoint ([1]; raloxifene 10 mg, n = 42): 0.21 U/L
Serum osteocalcin, mean group change from baseline to endpoint ([1]; raloxifene 10 mg, n = 42): -0.27 ng/mL
Serum alkaline phosphatase, mean group change from baseline to endpoint ([1]; raloxifene 50 mg, n = 42): −4.78 U/L
Serum osteocalcin, mean group change from baseline to endpoint ([1]; raloxifene 50 mg, n = 42): -0.81 ng/mL
Serum alkaline phosphatase, mean group change from baseline to endpoint ([1]; raloxifene 200 mg, n = 41): −5.93* U/L
Serum osteocalcin, mean group change from baseline to endpoint ([1]; raloxifene 200 mg, n = 41): −1.21* ng/mL
LDL cholesterol (in words) ([2]; 50 mg): Decreases
LDL cholesterol (in words) ([2]; 200 mg): comparable decrease
HDL:LDL ratios (in words) ([2]; both the 50 and 200 mg doses): Statistically significant decreases
total serum cholesterol levels (in words) ([2]; both the 50 and 200 mg doses): Statistically significant decreases
HDL-C, mean group change from baseline to endpoint ([2]; raloxifene 10 mg, n = 42): 0.01 mmol/L
HDL-C:LDL-C ratio, mean group change from baseline to endpoint ([2]; raloxifene 10 mg, n = 42): 0.00
LDL-C, mean group change from baseline to endpoint ([2]; raloxifene 10 mg, n = 42): 0.05 mmol/L
Toal cholesterol, mean group change from baseline to endpoint ([2]; raloxifene 10 mg, n = 42): 0.01 mmol/L
HDL-C, mean group change from baseline to endpoint ([2]; raloxifene 50 mg, n = 42): 0.04 mmol/L
HDL-C:LDL-C ratio, mean group change from baseline to endpoint ([2]; raloxifene 50 mg, n = 42): 0.03*
LDL-C, mean group change from baseline to endpoint ([2]; raloxifene 50 mg, n = 42): −0.23* mmol/L
Toal cholesterol, mean group change from baseline to endpoint ([2]; raloxifene 50 mg, n = 42): −0.23* mmol/L
HDL-C, mean group change from baseline to endpoint ([2]; raloxifene 200 mg, n = 41): 0.02 mmol/L
HDL-C:LDL-C ratio, mean group change from baseline to endpoint ([2]; raloxifene 200 mg, n = 41): 0.03*
LDL-C, mean group change from baseline to endpoint ([2]; raloxifene 200 mg, n = 41): -0.17 mmol/L
Toal cholesterol, mean group change from baseline to endpoint ([2]; raloxifene 200 mg, n = 41): -0.15 mmol/L
HDL levels (in words) ([2]; raloxifene-treated subjects): no changes

Reference: patent publication USRE39050E1, “Methods of use for inhibiting bone loss and lowering serum cholesterol” (Eli Lilly and Company, priority 1994, dated 2006)
